According to paper PMC11862990, “Utility of 6-aza-2-thiothymine in the synthesis of novel [1,2,4]triazolo[4,3-b][1,2,4]triazin-7-one derivatives: synthesis, structure elucidation, molecular docking and in vitro anti-lung cancer activity” (RSC Advances, 2025):
Like-named read-outs stand apart in the source and are kept apart here. Marks after values point to notes of the source that are not given here.

How the values were obtained:
[1] = system: p53 gene expression in lung cancer cell lines; test: qRT-PCR gene expression, p53; type: cell-based, human; settings: treated lung cancer cell line vs negative control; order 7g, Dox, 7a
Description: (§1) The RNeasy Mini Kit (Qiagen, Hilden, Germany), augmented with a DNaseI (Qiagen) digestion step, was employed to extract total RNA from lung cancer cell lines following the manufacturer's procedure. The isolated total RNA was treated with one unit of RQ1 RNAse-free DNAse (Invitrogen, Germany) to eliminate DNA remnants, re-suspended in DEPC-treated water, and quantified photometrically at 260 nm. The purity of total RNA was evaluated using the 260/280 nm ratio, which ranged from 1.8 to 2.1.[27]
(§2) Furthermore, integrity was confirmed using ethidium bromide-stained examination of 28S and 18S bands via formaldehyde-containing agarose gel electrophoresis. Aliquots were utilized immediately for reverse transcription (RT); otherwise, they were preserved at −80 °C.
(§3) The poly(A) + RNA extracted from the lung cancer cell lines was reverse transcribed into the cDNA in a total amount of 20 μl utilizing the Revert Aid TM First Strand cDNA Synthesis Kit (Fermentas, Germany). A total of 5 μg of RNA was utilized with a master mix. The master mix comprised 50 mM MgCl2, 10× RT buffer (50 mM KCl; 10 mM Tris–HCl; pH 8.3), 10 mM of each dNTP, 50 μM oligo-dT primer, 20 IU ribonuclease inhibitor (50 kDa recombinant enzyme to suppress RNase activity), and 50 IU MuLV reverse transcriptase. Each sample mixture was centrifuged for 30 seconds at 1000 g and thereafter transferred to the thermocycler. The RT reaction was conducted at 25 °C for 10 minutes, subsequently at 42 °C for 1 hour, and concluded with a denaturation phase at 99 °C for 5 minutes. Subsequently, the reaction tubes containing RT-prepared samples were rapidly chilled in an ice chamber prior to cDNA amplification via the quantitative real-time polymerase chain reaction (qRT-PCR).
(§4) The cDNA copy number of lung cancer cell lines was determined using the StepOne™ Real-Time PCR System from Applied Biosystems (Thermo Fisher Scientific, Waltham, MA, USA). […]
(§5) The reaction protocol was divided into three stages. […] The relative quantification of the target gene to the reference gene was assessed using the 2^−ΔΔCT method.[29–31]

A549 (lung carcinoma) = test: MTT cytotoxicity assay, A549; type: cell-based; settings: Homo sapiens; for cytotoxicity at 100 µg/mL: read-out: (%) Mortality A549; for IC50: 48 hour incubation
Description: Using specific human cancer cell lines, the anti-proliferative effectiveness of compounds 7a–j was evaluated in an in vitro assay. The anti-cancer activity of these compounds (7a–j) on various cancer cell lines, including PC3 (Prostate cell line), A549 (Lung carcinoma), PACA2 (Pancreatic cancer cell line) and BJ1 (normal skin fibroblast), was investigated in this study using the 3-(4,5-dimethylthiazol-2-yl)-2,5-diphenyltetrazolium bromide (MTT) test. Doxorubicin (Dox) was the standard medication used as a positive control.
In the initial screening trial, a single dosage concentration of 100 μg ml^−1 was applied for 48 hours. The cytotoxicity of the treated cells was determined by calculating the cell death percentage (% mortality) as a percentage of untreated cells (Table 2).
All incubations were performed at 37 °C in a 5% CO2 incubator with a 95% humidified environment (Sheldon, TC2323; Cornelius, OR, USA). 96-well micro titer polypropylene plates were seeded with cells at a density of 10^4 cells per well in complete DMEM media, and the cells were allowed to adhere for 24 hours. After the media was aspirated, the tested compounds were added to the cells in a single dose of 100 μg ml^−1 in DMSO. Each well received 40 μl of MTT salt (2.5 g ml^−1) following a 48 hour incubation period. 200 μl of 10% sodium dodecyl sulfate (SDS) was added to each well after the reaction ended, and any formazan crystals that could have been produced were dissolved by two hours of incubator heating to 37 °C. The amount of formazan product was measured at 595 nm using a microplate reader (Bio-Rad Laboratories, model 3350, California, USA) with a reference wavelength of 690 nm, serving as a backdrop. Rather than the drugs under investigation, the medium was applied to the untreated cells (negative control). The examined compounds were dissolved in dimethylsulfoxide (DMSO), and the final concentration in the cells was less than 0.2%. For each compound and the control, the solvent concentration was the same.

[2] = system: BCL-2 gene expression in lung cancer cell lines; test: qRT-PCR gene expression, BCL-2; type: cell-based, human; settings: treated lung cancer cell lines vs negative control; descending order 7g, Dox, 7a
Description: as §1, §2, §3, §4, §5

[3] = system: lung cancer cell lines (A549); test: DNA damage evaluation using the comet assay; type: cell-based, human; settings: for DNA damaged cells% (mean ± SEM): A549, comet assay, negative control 11.59 ± 0.65; for Class 0 cells (no tail) / Class 1 cells (tail length < diameter of the nucleus) / Class 2 cells (tail length between 1× and 2× the diameter of the nucleus) / Class 3 cells (tail length > 2× the diameter of the nucleus) / No. of cells: Comets: A549, of 440 cells analyzed
Description: The determination of DNA damage via the comet assay was conducted using lung cancer cell lines, following the methodology established by Olive et al. (1990).[32] Following trypsin treatment to generate a single-cell suspension, approximately 1.5 × 10^4 cells were embedded in 0.75% low-gelling-temperature agarose and swiftly pipetted onto a pre-coated microscope slide.
The samples underwent lysis for 4 hours at 50 °C in a solution containing 0.5% SDS and 30 mM EDTA at pH 8.0. Following an overnight rinse at room temperature in a Tris/borate/EDTA buffer, pH 8.0, samples underwent electrophoresis for 25 minutes at 0.6 V cm^−1 and were subsequently stained with propidium iodide. The slides were examined with a fluorescence microscope equipped with a CCD camera, and 150 individual comet images were analyzed from each sample for a tail moment, DNA content, and percentage of DNA in the tail.
The non-overlapping cells were randomly selected and assigned a score on a scale of 0–3 based on the comet tail length migration and the relative proportion of DNA in the nucleus. Class 0 indicates no detectable DNA damage and no tail; class 1 indicates a tail length less than the diameter of the nucleus; class 2 indicates a tail length between 1× and 2× the nuclear diameter; and class 3 indicates a tail longer than 2× the diameter of the nucleus (Collins et al., 1997).[33]

[4] = A549, 100 μg ml^−1, 48 hours, MTT

SMILES | p53 (pro-apoptotic gene) expression level [1] | cytotoxicity at 100 µg/mL (A549 (lung carcinoma); [4]) [%] | IC50 (A549 (lung carcinoma); A549, MTT) [µM] | BCL-2 (anti-apoptotic gene) expression level [2] | DNA damaged cells% (mean ± SEM) [3] | Class 0 cells (no tail) [3] | Class 1 cells (tail length < diameter of the nucleus) [3] | Class 2 cells (tail length between 1× and 2× the diameter of the nucleus) [3] | Class 3 cells (tail length > 2× the diameter of the nucleus) [3] | No. of cells: Comets [3] | cytotoxicity at 100 µg/mL (A549 (lung carcinoma); A549, 48 h) [%]
Cc1nn2c(C)nn(-c3ccc([N+](=O)[O-])cc3)c2nc1=O [Compound 7a, 3,6-Dimethyl-1-(4-nitrophenyl)-[1,2,4]triazolo[4,3-b][1,2,4]triazin-7(1H)-one] | elevated | 80.4 ± 0.66 | 36.6 | diminished | 28.18 ± 1.25^a % | 316 | 37 | 45 | 42 | 124 | –
COc1ccc(-c2nn(-c3ccccc3)c3nc(=O)c(C)nn23)cc1 [Compound 7g, 3-(4-Methoxyphenyl)-6-methyl-1-phenyl-[1,2,4]triazolo[4,3-b][1,2,4]triazin-7(1H)-one] | elevated | 82.3 ± 0.82 | 40.1 | diminished | 21.14 ± 0.85^b % | 347 | 32 | 38 | 23 | 93 | –
COc1cccc2c1C(=O)c1c(O)c3c(c(O)c1C2=O)C[C@@](O)(C(=O)CO)C[C@@H]3O[C@H]1C[C@H](N)[C@H](O)[C@H](C)O1 [Dox, Doxorubicin, reference compound] | elevated | – | 43.8 | diminished | 23.86 ± 1.11^b % | 335 | 34 | 41 | 30 | 105 | 100
